Among the test systems are DLD-1; DMS-114; DMS-273; HOP-18; KM-20L2; LXFL 529; RXF 631; SNB-78; XF498.
Common to all, as to experiment: growth of human tumour cells (NCI), 48 h

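Interpolation was linear, between the two tested concentrations surrounding the appropriate level; five concentrations were tested over 48 hours in 96-well plates. GI50 is the concentration that inhibits growth by half.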 Activity calls are given as the source filed them. No stated cut-off is given here; in the data, active = GI50 up to about 1.1 µM and inactive = higher.

`C=C1C(=O)O[C@H]2[C@H]1[C@H](OC(=O)/C(C)=C\C)CC(=C)[C@@H]1[C@H](O)[C@H]3O[C@@]3(C)[C@@]12O` [EUPATUNDIN]: the GI50 in the assay with DLD-1, in the assay with DMS-114, with DMS-273, in the assay with HOP-18, in the assay on KM-20L2 and in the assay on LXFL 529 was > 100 µM (inactive) in each case. Besides, the GI50 with RXF 631, in the assay with SNB-78 and in the assay on XF498 was > 100 µM (inactive) throughout.
With `C=C(C)CC(C(=O)O)c1ccc(C)cc1` (stereo not given), the GI50 in the assay with DLD-1, with DMS-114, in the assay with DMS-273, in the assay with HOP-18, in the assay with KM-20L2 and in the assay on SNB-78 was > 100 µM (inactive) each time. Also, the GI50 in the assay on XF498 is > 100 µM (inactive).
Take `C=C[C@@]1(C)CCC2(O)C(CCC3C2(C)CCC[C@@]3(C)COC(=O)CC(=O)OC)C1` (stereo not given in full): the GI50 with DLD-1 is 17.4 µM (inactive); in the assay on KM-20L2, 18.7 µM (inactive); in the assay on LXFL 529 it was 17.3 µM (inactive); in the assay on RXF 631, 19.1 µM (inactive); in the assay with SNB-78, 26.1 µM (inactive); in the assay with XF498, 21.6 µM (inactive).
As for `COC1CCCc2c(OC(C)=O)ccc(OC(C)=O)c21` (stereo not given), the GI50 with DMS-114 is > 100 µM (inactive); in the assay with KM-20L2, > 100 µM (inactive); in the assay on LXFL 529 it was > 100 µM (inactive); in the assay on SNB-78 it was 36 µM (inactive).
As for `COc1cc(Nc2nc3cc(C(F)(F)F)ccc3nc2-c2ccccc2)cc(OC)c1OC`, the GI50 in the assay with DLD-1 is > 100 µM (inactive); in the assay on DMS-114, > 100 µM (inactive); in the assay on DMS-273, 22.8 µM (inactive); in the assay on LXFL 529, > 100 µM (inactive); with RXF 631, 61.8 µM (inactive); in the assay on SNB-78 it was 46.2 µM (inactive). Further, the GI50 with XF498 was 32.5 µM (inactive).
On to `COc1ccc(C2Oc3cc(OC)c(O)c(C)c3[C@H]2C)cc1` (stereo not given in full), for which the GI50 in the assay on DLD-1 is > 100 µM (inactive); in the assay with DMS-114 it was 58.7 µM (inactive); with DMS-273, 73.3 µM (inactive); in the assay with HOP-18, 19 µM (inactive); in the assay with KM-20L2, > 100 µM (inactive); in the assay on LXFL 529, 71.6 µM (inactive). Also, in the assay with SNB-78, the GI50 is > 100 µM (inactive).
As for `O=C(c1ccccc1)c1nnc(C(=O)c2ccccc2)nn1`, the GI50 is > 344 µM (inactive) in the assay on DLD-1; > 344 µM (inactive) in the assay with DMS-273; > 344 µM (inactive) in the assay on HOP-18; > 344 µM (inactive) with KM-20L2; 266 µM (inactive) in the assay with LXFL 529; 170 µM (inactive) in the assay with SNB-78.
Take `CN(C)CCC(CCN(C)C)=NO`: the GI50 with DLD-1, in the assay on DMS-114, in the assay on DMS-273, in the assay with HOP-18, with KM-20L2 and in the assay on LXFL 529 was > 100 µM (inactive) each time. Further, the GI50 with RXF 631 and with SNB-78 was > 100 µM (inactive) each time.
Take `NC(=O)/N=C1\NC(Cc2ccccc2)C(=O)N1Cc1ccccc1` (stereo not given): the GI50 in the assay with DLD-1, in the assay on DMS-114, with DMS-273, with KM-20L2, with LXFL 529 and with SNB-78 was > 100 µM (inactive) each time. Moreover, the GI50 with XF498 was 35.6 µM (inactive).
On to `COc1ccc(/C(=C/n2ccnc2)C(O)c2ccc(OC)c(OC)c2)cc1OC` (stereo not given), for which the GI50 in the assay with DLD-1, with DMS-273, in the assay on HOP-18 and in the assay on KM-20L2 was > 100 µM (inactive) in each case.
With `OCCCCCNc1ccnc2cc(Cl)ccc12`, the GI50 in the assay with DLD-1 was > 100 µM (inactive); with DMS-114, 36.7 µM (inactive); in the assay with DMS-273, > 100 µM (inactive); in the assay with HOP-18, > 100 µM (inactive); with KM-20L2, > 100 µM (inactive); in the assay on LXFL 529, > 100 µM (inactive). The GI50 in the assay with SNB-78 and in the assay on XF498 was > 100 µM (inactive) throughout.
As for `Nc1ccccc1C(=O)NC(=O)Nc1ccc(Oc2ncc(Br)cn2)c(Cl)c1`, the GI50 in the assay with DLD-1 is < 0.01 µM (active); in the assay on DMS-114, < 0.01 µM (active); in the assay on HOP-18 it was 13 µM (inactive); in the assay on KM-20L2, < 0.01 µM (active); in the assay on LXFL 529 it was < 0.01 µM (active); in the assay with SNB-78, < 0.12 µM (active).
With `O=S(O)CCCCSSCc1ccccc1CSSCCCCS(=O)O`, the GI50 in the assay with DLD-1 was 24.6 µM (inactive); in the assay on DMS-114 it was 14.9 µM (inactive); in the assay on DMS-273, 21.1 µM (inactive); in the assay with HOP-18 it was 14.7 µM (inactive); in the assay with KM-20L2 it was 61 µM (inactive); with LXFL 529, 11.4 µM (inactive). Moreover, the GI50 in the assay on RXF 631 is 23.1 µM (inactive); in the assay with XF498, 12 µM (inactive).
`CCCCCCCCC(=O)CCCCCCCCC(=O)O`: the GI50 was 20.1 µM (inactive) in the assay with DLD-1; 23 µM (inactive) in the assay on DMS-114; 25.3 µM (inactive) in the assay with DMS-273; 19.2 µM (inactive) in the assay on HOP-18; 25.9 µM (inactive) in the assay with KM-20L2; 27 µM (inactive) in the assay on LXFL 529. In addition, the figures for the GI50 in the assay on RXF 631, in the assay on SNB-78 and with XF498 were 21 µM (inactive), > 100 µM (inactive) and 34.2 µM (inactive), respectively.
As to `CN(C)CC(=O)N1CCc2c([nH]c3ccccc23)C1c1cccnc1` (stereo not given), the GI50 in the assay on DLD-1 was > 100 µM (inactive); in the assay on DMS-114, > 100 µM (inactive); in the assay with DMS-273, 0.0187 µM (active); in the assay with HOP-18, > 100 µM (inactive); with KM-20L2, > 100 µM (inactive); in the assay with LXFL 529, > 100 µM (inactive). In addition, the GI50 in the assay with RXF 631, in the assay with SNB-78 and in the assay on XF498 was > 100 µM (inactive) throughout.
On to `O=C(O)C(CS)Nc1c2ccccc2[n+]([O-])c2ccccc12` (stereo not given), for which the GI50 in the assay on DLD-1 was 95.9 µM (inactive); in the assay on DMS-114, > 100 µM (inactive); in the assay with DMS-273 it was > 100 µM (inactive); in the assay on HOP-18, > 100 µM (inactive); in the assay on KM-20L2, > 100 µM (inactive); in the assay on LXFL 529 it was 53.7 µM (inactive). The GI50 with RXF 631 and in the assay with SNB-78 was > 100 µM (inactive) throughout.
With `CSC1=NC=CCN1C`, the GI50 with DLD-1, in the assay on DMS-114, in the assay on DMS-273, with HOP-18, in the assay on KM-20L2 and in the assay with LXFL 529 was > 100 µM (inactive) in each case.
In the case of `Nc1ccc2c(c1)CC1c3ccccc3C(C2)c2ccccc21`, the GI50 in the assay on DLD-1, with DMS-114, with DMS-273, in the assay with HOP-18, with KM-20L2 and in the assay with LXFL 529 was > 100 µM (inactive) each time. Further, the GI50 in the assay on SNB-78 is > 100 µM (inactive).
`CC(=O)ON(C(C)=O)C1C(COC(c2ccccc2)(c2ccccc2)c2ccccc2)OC2OC3(CCCC3)OC21` (stereo not given): the GI50 in the assay on DLD-1 was 5.32 µM (inactive); in the assay with DMS-114 it was 5.5 µM (inactive); in the assay with DMS-273 it was 3.57 µM (inactive); with HOP-18 it was 49.3 µM (inactive); in the assay on KM-20L2 it was 5.19 µM (inactive); with XF498, 5.19 µM (inactive).
Turning to `CCN1C(=O)/C(=C\c2coc3ccccc3c2=O)SC1=S`, the GI50 with DLD-1 was > 100 µM (inactive); in the assay with DMS-114 it was > 100 µM (inactive); with DMS-273 it was 59 µM (inactive); with HOP-18, 80.4 µM (inactive); in the assay on KM-20L2, > 100 µM (inactive); with LXFL 529, > 100 µM (inactive). For the same compound, the GI50 in the assay with SNB-78 was 56.8 µM (inactive); in the assay on XF498 it was 40 µM (inactive).
Turning to `CN1C(c2ccccc2)CC(=O)C(N)C1c1ccccc1` (stereo not given), the GI50 in the assay with DLD-1 is 30.2 µM (inactive); in the assay with DMS-273 it was 23.4 µM (inactive); in the assay on HOP-18, 37.4 µM (inactive); with KM-20L2, 34.8 µM (inactive); with LXFL 529, 17.6 µM (inactive); in the assay on SNB-78 it was 23.7 µM (inactive). In the assay on XF498, the GI50 is 14.7 µM (inactive).
On to `CCCCCCCCCCCCCCCCc1c(C(=O)OC)[nH]c(=S)[nH]c1=O`, for which the GI50 in the assay with DLD-1, in the assay on DMS-273, in the assay on HOP-18, in the assay on KM-20L2, in the assay on LXFL 529 and with RXF 631 was > 50 µM (inactive) throughout. In addition, the GI50 in the assay with SNB-78 and in the assay with XF498 was > 50 µM (inactive) each time.
As to `O=Cc1cc2sc(C=O)cc2s1`, the GI50 in the assay with DLD-1, in the assay with DMS-114, with DMS-273, in the assay with KM-20L2, in the assay on LXFL 529 and with RXF 631 was > 100 µM (inactive) throughout. Besides, the GI50 with SNB-78 and in the assay with XF498 was > 100 µM (inactive) throughout.
With `CN(C)CN(C)c1nc(N(C)C)nc(N(C)C)n1`, the GI50 in the assay with DLD-1 is > 100 µM (inactive); in the assay with DMS-114, 90.2 µM (inactive); in the assay on DMS-273 it was > 100 µM (inactive); in the assay on HOP-18, > 100 µM (inactive); in the assay with KM-20L2, > 100 µM (inactive); with LXFL 529, 84.7 µM (inactive). The GI50 in the assay with SNB-78 and in the assay with XF498 was > 100 µM (inactive) throughout.
In the case of `O=C1C2C3C=CC(C2C(=O)N1COP(=O)(O)O)C1C2C(=O)N(COP(=O)(O)O)C(=O)C2C31` (stereo not given), the GI50 was > 49.2 µM (inactive) with DLD-1; > 41.7 µM (inactive) in the assay with DMS-114; > 41.4 µM (inactive) in the assay on DMS-273; > 100 µM (inactive) in the assay with HOP-18; > 100 µM (inactive) with KM-20L2; > 100 µM (inactive) in the assay with LXFL 529. Also, the GI50 in the assay on SNB-78 and in the assay with XF498 was > 100 µM (inactive) throughout.
As to `CCOc1cccc2cccnc12`, the GI50 with DLD-1 was > 100 µM (inactive); in the assay on DMS-114 it was > 100 µM (inactive); in the assay with HOP-18, 57.5 µM (inactive); in the assay on KM-20L2 it was > 100 µM (inactive); with LXFL 529 it was > 100 µM (inactive); with XF498, > 100 µM (inactive).

(Values after ChEMBL document CHEMBL1201862, “PubChem BioAssay data set” (2004).)
